In US20110150769A1, “IDENTIFICATION AND USE OF COMPOUNDS FOR TREATING PERSISTENT PAIN” (priority 2009, published 2011):
“Also recorded” adds a separate entry of the source.

What was measured:
[1] = tested on: CFA-induced thermal hyperalgesia in mice; assay: CFA-induced heat hyperalgesia (Hargreaves test) after intrathecal injection; format: in vivo, mouse
Experimental: All behavioral tests were performed with an experimenter blinded to the genotype. The mice used in the tests were backcrossed to C57BI/6 mice for at least five generations and were 2 to 3 month-old males (20-30 g).
CFA-induced heat hyperalgesia: the intraplantar region of one hind paw of each mouse was injected with 6 μl of 50% CFA solution or 10 μl of 1% carrageneen solution in saline. Thermal pain sensitivity was assessed by recording paw withdrawal latencies on exposure to a defined radiant heat stimulus (Hargreaves test) before CFA injection and 30 min after injection.
(§1) BAM 8-22 was purchased from Tocris (Bristol, UK) and was suspended in 0.9% saline. The drug was injected intrathecally under brief isoflurane (1.5%) anesthesia to reduce stress. A 30-gauge, 0.5-inch needle connected to a 10-μl syringe was inserted into one side of the L5 or L6 spinous process at an angle of approximately 20° above the vertebral column and slipped into the groove between the spinous and transverse processes. The needle was moved carefully forward to the intervertebral space.
The ability of BAM 8-22 to modulate persistent inflammatory pain was determined by examining enhanced pain sensitivity to a noxious heat stimulus, as monitored by the Hargreaves test 24 hours after intra-plantar injection of CFA (6 μl, 50%) into one hind paw. […] In WT mice, a single intrathecal injection of BAM 8-22 (1 mM, 5 μl) was able to alleviate thermal hyperalgesia at 30 min post-injection, increasing the PWL by 1.9-fold compared to pre-drug baseline (FIG. 6A, WT, n=13, ipsilateral paw).

[2] = tested on: acute thermal nociception in mice; assay: Tail immersion test (50° C.) after intrathecal injection; format: in vivo, mouse; conditions: naive WT and Mrgpr-clusterΔ−/− mice, 1 mM, 5 μl i.th.
Experimental: Tail immersion test: mice were gently restrained in a 50-ml conical tube that the mice voluntarily entered. The protruding one third of the tail was then dipped into a 50° C. water bath. Latency to respond to the heat stimulus with vigorous flexion of the tail was measured three times and averaged.
as §1
To determine whether intrathecal BAM 8-22 also affected acute thermal nociception, tail-immersion tests in naïve WT and Mrgpr-clusterΔ^−/− mice were performed.

[3] = tested on: WDR neurons in the dorsal horn of the spinal cord; assay: Electrophysiological recording of WDR neurons, spinal topical application; format: in vivo, mouse; conditions: for A-latency / A-threshold / C-latency / C-threshold: post-BAM 8-22
Experimental: The electrophysiological recording of WDR neurons in the dorsal horn of the spinal cord was performed by an experimenter blinded to the genotype as previously described in Guan et al., 2006, J. Neurosci., 26:4298-4307. Mice were paralyzed with pancuronium bromide (0.15 mg/kg, i.p.) during neurophysiological recording. Throughout the experiment, anesthesia was maintained with a constant level of isoflurane (1.5%) carried in med-air. A spinal unit with a cutaneous receptive field located in the plantar area of the hind paw was located by applying mechanical stimuli. WDR neurons were defined as those that responded to both innocuous and noxious mechanical stimuli and that had increasing rates of response to increasing intensities of stimuli. Electrical stimuli were applied through a pair of fine needles inserted subcutaneously across the central plantar area of the hind paw 0.3-0.4 cm apart. Extracellular recordings of individual neurons were obtained by using fine-tip (<1.0 μm) paralyn-coated tungsten micro-electrodes ([…] at 1 kHz).
BAM 8-22 or vehicle control was applied directly to the exposed surface of the spinal cord at the recording segment in a volume of 30-50 μl following pre-drug tests. The effects of BAM 8-22 on the spontaneous activity of WDR neurons were examined within 0-10 min after application. The evoked neuronal responses were recorded 10-30 minutes after drug application. Only one neuron in each animal was used to test the drug effects. The post-drug responses were compared with the pre-drug responses, allowing each neuron to act as its own control.
The number of action potentials (APs) evoked by graded electrical stimuli was compared between two genotypes, using a two-way mixed-model analysis of variance (ANOVA) with Fisher's protected least significant difference (LSD) post-hoc test. Student's t-test was used to compare the recording depth, activation threshold and latency of the first A-fiber-mediated and the first C-fiber-mediated responses, respectively, between the two groups. For wind-up, the raw data were the number of APs in the C-component evoked by each stimulus in a train of repetitive electrical stimulation. Since the number of APs in the C-component varies among WDR neurons, the raw data for each neuron were normalized to the first response in each trial (input) and then averaged. A two-way mixed-model ANOVA was used to compare wind-up and the averaged C-component responses to the last 10 stimuli (7th-16th) of the trial between the two genotypes and between pre- and post-drug conditions. Data are presented as mean±standard error of mean (S.E.M). Statistical comparisons were made using unpaired Student's t-test and differences were considered significant at p<0.05.

[4] = tested on: awake mice; assay: Spontaneous pain responses after intrathecal injection in awake mice; format: in vivo, mouse; conditions: awake WT and Mrgpr-clusterΔ−/− mice
Experimental: as §1
Intrathecal injection of BAM 8-22 in awake mice elicited short-term (less than 10 min) spontaneous pain responses.

[5] = target: T1, mouse MrgprC11 (Mus musculus, UniProt Q8CIP3); conditions: Han et al, 2002, Lembo et al.; cited from earlier work
T1 sequence (Q8CIP3 1-322): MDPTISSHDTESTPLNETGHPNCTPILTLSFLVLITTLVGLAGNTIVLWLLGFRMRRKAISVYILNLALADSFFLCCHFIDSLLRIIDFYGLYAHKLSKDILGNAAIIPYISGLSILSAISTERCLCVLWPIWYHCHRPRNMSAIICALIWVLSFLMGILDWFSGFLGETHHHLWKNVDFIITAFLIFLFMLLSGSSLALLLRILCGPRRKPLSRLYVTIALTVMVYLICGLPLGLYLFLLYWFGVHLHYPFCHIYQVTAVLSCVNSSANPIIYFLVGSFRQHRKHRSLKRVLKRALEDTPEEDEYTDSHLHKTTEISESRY

[6] = tested on: opioid receptors; conditions: literature; cited from earlier work
[7] = Mrgpr-clusterΔ−/− mice, 0.1 mM, 30-50 μl

**Q.** With BAM 8-22 as the substance, how does the “anti-hyperalgesic effect, ipsilateral hind paw” value ([1]; Mrgpr-clusterΔ−/− mice, 1 mM, 5 μl i.th., 24 h after CFA) read?
**A.** not observed

**Q.** And the “sensitivity to acute radiant heat (Hargreaves test)” value ([1]; WT and Mrgpr-clusterΔ−/− mice, contralateral hind paw)?
**A.** did not significantly change

**Q.** What about the “thermal hyperalgesia of the ipsilateral hind paw” value ([1]; WT mice, 1 mM, 5 μl i.th., 24 h after CFA) of the same substance?
**A.** significantly alleviated

**Q.** And the “increase of paw withdrawal latency (PWL) compared to pre-drug baseline” value ([1]; WT mice, ipsilateral paw, 1 mM, 5 μl i.th., 30 min post-injection, 24 h after CFA)?
**A.** 1.9 fold

**Q.** And the “PWL of the contralateral (control side) hind paw” value ([1]; either group (WT, Mrgpr-clusterΔ−/−), 1 mM, 5 μl i.th.)?
**A.** did not significantly affect

**Q.** What about the “tail flick latency vs pre-drug” value [2] of the same substance?
**A.** not significantly different; also recorded: did not significantly change

**Q.** What about the “input value and C-component responses of WDR neurons to 0.5 Hz stimulation” value ([3]; Mrgpr-clusterΔ−/− mice) of the same substance?
**A.** significantly increased

**Q.** What about the “input value and C-component responses of WDR neurons to repetitive (0.5 and 1.0 Hz) stimulation” value [3, 7] of the same substance?
**A.** significantly increased

**Q.** What about the “wind-up levels (normalized to the input value)” value [3, 7] of the same substance?
**A.** not increased

**Q.** And the “C-component responses of WDR neurons to graded electrical stimulation” value ([3]; Mrgpr-clusterΔ−/− mice, n=17, 0.1 mM, intensities >1.0 mA (2.0-5.0 mA))?
**A.** significantly increased

**Q.** What about the A-latency ([3]; Mrgpr-clusterΔ−/−) of the same substance?
**A.** 12.9 ± 0.6 ms

**Q.** And the A-threshold ([3]; Mrgpr-clusterΔ−/−)?
**A.** 0.19 ± 0.03 mA

**Q.** What about the C-latency ([3]; Mrgpr-clusterΔ−/−) of the same substance?
**A.** 118 ± 4 ms

**Q.** What about the C-threshold ([3]; Mrgpr-clusterΔ−/−) of the same substance?
**A.** 1.9 ± 0.6 mA

**Q.** What about the “windup response after saline wash-out” value ([3]; WT WDR neuron, 0.5 Hz, 10-30 min after saline wash-out) of the same substance?
**A.** partially recovered

**Q.** What about the “wind-up / C-component responses to 0.5 Hz and 1.0 Hz stimulation” value ([3]; WT mice, n=25, 0.1 mM, 30-50 μl) of the same substance?
**A.** significantly attenuated; also recorded: inhibited

**Q.** And the “windup of WDR neurons to 0.5 Hz stimulation” value ([3]; WT mice, n=25, spinal superfusion, 10-30 min after application)?
**A.** significantly attenuated; also recorded: significantly decreased; also recorded: substantially attenuated

**Q.** What about the A-latency ([3]; Wild-type) of the same substance?
**A.** 12.1 ± 0.7 ms

**Q.** And the A-threshold ([3]; Wild-type)?
**A.** 0.17 ± 0.03 mA

**Q.** And the C-latency ([3]; Wild-type)?
**A.** 115 ± 4 ms

**Q.** And the C-threshold ([3]; Wild-type)?
**A.** 1.7 ± 0.4 mA

**Q.** What about the “threshold and latency of the first C-fiber-mediated action potential” value ([3]; either WT or Mrgpr-clusterΔ−/− mice) of the same substance?
**A.** unaffected

**Q.** And the “duration of spontaneous pain responses elicited by intrathecal injection” value [4]?
**A.** less than 10 min

**Q.** And the “activation of mouse MrgprC11” value [5]?
**A.** specifically activates

**Q.** What about the “activation of opioid receptors” value [6] of the same substance?
**A.** but not opioid receptors
